Experimental data taken from patent publication US20240423206A1, “HERBICIDE TRANSPORT SYSTEM” (priority 2021, published 2024).

How the values were obtained:
[1] = Method: Pinoxaden (25 g) was added to the respective solvent (75 g) as set out in Table 1 and stirred at 50° C. for 1 hour. After cooling to room temperature (RT) the sample was visually checked for solid residues.
Where there were no residues and the resulting solution was a clear liquid the sample was considered as a “pass”.

[2] = powdered form, repeated inhalation of dust; cited from earlier work

Compound	Solubility [1]	respiratory sensitisation [2]
rapeseed oil	Fail	
CCc1cc(C)cc(CC)c1-c1c(OC(=O)C(C)(C)C)n2n(c1=O)CCOCC2 [pinoxaden]		respiratory sensitizer
cyclohexanedicarboxylic acid, dinonyl ester	Fail	
